Measurements published in US10927106B2, “Benzothiazole derivatives as DYRK1 inhibitors” (PHARMASUM THERAPEUTICS AS, priority 2017, dated 2021).

Assays:
Assay in all cases: Kinase profiling, 33P ATP filter binding assay
Assay type in all cases: biochemical
Settings in all cases: 1 micromolar inhibitor concentration, read-out: percentage inhibition
MKK2 = MKK2 (Homo sapiens (Human), UniProt P36507)
ERK1 = ERK1 (Homo sapiens (Human), UniProt P27361)
ERK5 = ERK5 (Homo sapiens (Human), UniProt Q13164)
JNK3 = JNK3 (Homo sapiens (Human), UniProt P53779)
p38b MAPK = p38b MAPK (Homo sapiens (Human), UniProt Q15759)
RSK1 = RSK1 (Homo sapiens (Human), UniProt Q15418)
PKCa = PKCa (Homo sapiens (Human), UniProt P17252)
PKCy = PKCy (Homo sapiens (Human), UniProt P05129)
PKD1 = PKD1 (Homo sapiens (Human), UniProt Q15139)
MNK2 = MNK2 (Homo sapiens (Human), UniProt Q9HBH9)
MAPKAP-K3 = MAPKAP-K3 (Homo sapiens (Human), UniProt Q16644)
CAMK1 = CAMK1 (Homo sapiens (Human), UniProt Q14012)
CHK1 = CHK1 (Homo sapiens (Human), UniProt O14757)
Aurora A = Aurora A (Homo sapiens (Human), UniProt O14965)
TLK1 = TLK1 (Homo sapiens (Human), UniProt Q9UKI8)
LKB1 = LKB1 (Homo sapiens (Human), UniProt Q15831)
MARK1 = MARK1 (Homo sapiens (Human), UniProt Q9P0L2)
BRSK1 = BRSK1 (Homo sapiens (Human), UniProt Q8TDC3)
TSSK1 = TSSK1 (Homo sapiens (Human), UniProt Q9BXA7)
CK2 = CK2 (Homo sapiens (Human), UniProt P68400)
NEK2a = NEK2a (Homo sapiens (Human), UniProt P51955)
EF2K = EF2K (Homo sapiens (Human), UniProt O00418)
EIF2AK3 = EIF2AK3 (Homo sapiens (Human), UniProt Q9NZJ5)
HIPK1 = HIPK1 (Homo sapiens (Human), UniProt Q86Z02)
HIPK2 = HIPK2 (Homo sapiens (Human), UniProt Q9H2X6)
PAK4 = PAK4 (Homo sapiens (Human), UniProt O96013)
MST2 = MST2 (Homo sapiens (Human), UniProt Q13188)
MAP4K3 = MAP4K3 (Homo sapiens (Human), UniProt Q8IVH8)
MINK1 = MINK1 (Homo sapiens (Human), UniProt Q8N4C8)
TESK1 = TESK1 (Homo sapiens (Human), UniProt Q15569)
TAK1 = TAK1 (Homo sapiens (Human), UniProt O43318)
IRAK4 = IRAK4 (Homo sapiens (Human), UniProt Q9NWZ3)
TTK = TTK (Homo sapiens (Human), UniProt P33981)
ULK1 = ULK1 (Homo sapiens (Human), UniProt O75385)
CSK = CSK (Homo sapiens (Human), UniProt P41240)
YES1 = YES1 (Homo sapiens (Human), UniProt P07947)
BTK = BTK (Homo sapiens (Human), UniProt Q06187)
BRK = BRK (Homo sapiens (Human), UniProt Q13882)
EPH-B3 = EPH-B3 (Homo sapiens (Human), UniProt P54753)
HER4 = HER4 (Homo sapiens (Human), UniProt Q15303)
IGF-1R = IGF-1R (Homo sapiens (Human), UniProt P08069)
IR = IR (Homo sapiens (Human), UniProt P06213)

Sequence of MAP4K3 (Q8IVH8 whole entry, species assumed): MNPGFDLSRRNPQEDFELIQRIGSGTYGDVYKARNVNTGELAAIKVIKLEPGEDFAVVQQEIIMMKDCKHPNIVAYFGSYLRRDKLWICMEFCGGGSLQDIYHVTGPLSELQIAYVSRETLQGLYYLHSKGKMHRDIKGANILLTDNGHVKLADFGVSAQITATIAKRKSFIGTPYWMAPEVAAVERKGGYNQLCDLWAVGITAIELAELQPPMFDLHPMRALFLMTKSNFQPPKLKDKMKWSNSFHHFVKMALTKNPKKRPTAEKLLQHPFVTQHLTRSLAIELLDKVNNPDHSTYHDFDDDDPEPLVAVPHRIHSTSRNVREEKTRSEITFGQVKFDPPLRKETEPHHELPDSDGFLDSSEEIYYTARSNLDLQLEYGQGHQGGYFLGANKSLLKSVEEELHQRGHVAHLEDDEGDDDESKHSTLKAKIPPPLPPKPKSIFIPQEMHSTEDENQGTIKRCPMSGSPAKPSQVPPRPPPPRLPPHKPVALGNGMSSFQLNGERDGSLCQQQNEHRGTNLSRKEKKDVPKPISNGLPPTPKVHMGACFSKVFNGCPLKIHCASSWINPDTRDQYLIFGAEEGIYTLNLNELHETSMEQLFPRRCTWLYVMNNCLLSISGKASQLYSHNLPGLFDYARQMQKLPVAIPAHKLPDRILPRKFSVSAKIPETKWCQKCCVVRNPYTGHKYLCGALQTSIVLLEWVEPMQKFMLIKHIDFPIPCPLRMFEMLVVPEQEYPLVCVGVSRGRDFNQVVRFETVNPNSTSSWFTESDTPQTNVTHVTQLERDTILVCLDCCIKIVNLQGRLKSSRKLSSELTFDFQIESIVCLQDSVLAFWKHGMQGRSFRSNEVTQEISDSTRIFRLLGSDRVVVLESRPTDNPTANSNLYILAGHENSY
Sequence of PKD1 (Q15139 whole entry): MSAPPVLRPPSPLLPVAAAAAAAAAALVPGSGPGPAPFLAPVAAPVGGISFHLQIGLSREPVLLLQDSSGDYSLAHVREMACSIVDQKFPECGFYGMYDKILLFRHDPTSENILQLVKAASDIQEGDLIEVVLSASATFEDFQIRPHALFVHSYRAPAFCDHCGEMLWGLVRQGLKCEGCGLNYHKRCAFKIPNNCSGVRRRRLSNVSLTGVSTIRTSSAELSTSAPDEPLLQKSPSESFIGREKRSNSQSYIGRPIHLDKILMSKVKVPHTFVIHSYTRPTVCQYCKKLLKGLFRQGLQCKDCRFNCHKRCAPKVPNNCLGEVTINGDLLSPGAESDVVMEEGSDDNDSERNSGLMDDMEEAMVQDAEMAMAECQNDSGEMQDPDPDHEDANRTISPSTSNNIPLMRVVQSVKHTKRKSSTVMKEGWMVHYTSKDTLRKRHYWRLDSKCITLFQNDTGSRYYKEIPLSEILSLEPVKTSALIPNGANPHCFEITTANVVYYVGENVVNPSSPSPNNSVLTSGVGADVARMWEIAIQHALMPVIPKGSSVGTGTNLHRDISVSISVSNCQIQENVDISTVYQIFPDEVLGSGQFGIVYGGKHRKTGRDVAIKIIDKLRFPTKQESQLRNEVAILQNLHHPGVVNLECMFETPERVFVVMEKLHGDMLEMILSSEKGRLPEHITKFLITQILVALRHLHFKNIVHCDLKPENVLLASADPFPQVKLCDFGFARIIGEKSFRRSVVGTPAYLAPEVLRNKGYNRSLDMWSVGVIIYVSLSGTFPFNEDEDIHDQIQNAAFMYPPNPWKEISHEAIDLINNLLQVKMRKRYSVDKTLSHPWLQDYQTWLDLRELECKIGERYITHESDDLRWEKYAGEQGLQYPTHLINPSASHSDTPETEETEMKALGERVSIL
Sequence of NEK2a (P51955 whole entry, species assumed): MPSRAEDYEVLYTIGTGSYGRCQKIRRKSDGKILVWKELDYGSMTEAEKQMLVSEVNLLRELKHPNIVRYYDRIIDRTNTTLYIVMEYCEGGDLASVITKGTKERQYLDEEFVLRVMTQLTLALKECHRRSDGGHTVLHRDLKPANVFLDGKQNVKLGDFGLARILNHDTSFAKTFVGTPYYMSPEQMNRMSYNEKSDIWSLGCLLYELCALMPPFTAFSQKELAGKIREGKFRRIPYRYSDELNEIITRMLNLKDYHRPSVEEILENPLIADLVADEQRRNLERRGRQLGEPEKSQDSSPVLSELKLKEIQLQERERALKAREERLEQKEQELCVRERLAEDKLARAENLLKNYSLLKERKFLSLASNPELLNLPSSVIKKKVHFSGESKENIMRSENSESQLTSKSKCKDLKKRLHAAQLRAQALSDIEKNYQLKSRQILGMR
Sequence of p38b MAPK (Q15759 whole entry): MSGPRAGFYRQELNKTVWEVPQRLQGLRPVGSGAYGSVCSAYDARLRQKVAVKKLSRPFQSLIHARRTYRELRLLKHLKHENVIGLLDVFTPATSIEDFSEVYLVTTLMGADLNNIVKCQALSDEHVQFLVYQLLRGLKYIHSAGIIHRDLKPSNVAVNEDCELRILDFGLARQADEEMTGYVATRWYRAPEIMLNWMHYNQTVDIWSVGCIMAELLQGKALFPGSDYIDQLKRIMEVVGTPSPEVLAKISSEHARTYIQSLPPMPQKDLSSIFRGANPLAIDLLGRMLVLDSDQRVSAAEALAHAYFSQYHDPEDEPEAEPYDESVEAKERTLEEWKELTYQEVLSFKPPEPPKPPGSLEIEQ
Sequence of BRK (Q13882 whole entry, species assumed): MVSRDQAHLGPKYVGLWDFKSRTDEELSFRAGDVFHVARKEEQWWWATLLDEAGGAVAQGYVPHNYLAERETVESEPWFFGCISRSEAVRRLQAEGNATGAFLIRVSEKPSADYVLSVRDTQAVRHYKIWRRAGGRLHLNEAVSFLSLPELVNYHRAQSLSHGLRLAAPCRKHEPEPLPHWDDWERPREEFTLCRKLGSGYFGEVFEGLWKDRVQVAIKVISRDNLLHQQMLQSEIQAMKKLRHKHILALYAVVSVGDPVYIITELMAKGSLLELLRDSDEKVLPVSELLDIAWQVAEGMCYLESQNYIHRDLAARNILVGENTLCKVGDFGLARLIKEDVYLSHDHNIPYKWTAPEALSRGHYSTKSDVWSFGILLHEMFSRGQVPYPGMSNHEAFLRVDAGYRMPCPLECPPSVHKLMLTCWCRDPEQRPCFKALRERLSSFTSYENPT
Sequence of TSSK1 (Q9BXA7 whole entry, species assumed): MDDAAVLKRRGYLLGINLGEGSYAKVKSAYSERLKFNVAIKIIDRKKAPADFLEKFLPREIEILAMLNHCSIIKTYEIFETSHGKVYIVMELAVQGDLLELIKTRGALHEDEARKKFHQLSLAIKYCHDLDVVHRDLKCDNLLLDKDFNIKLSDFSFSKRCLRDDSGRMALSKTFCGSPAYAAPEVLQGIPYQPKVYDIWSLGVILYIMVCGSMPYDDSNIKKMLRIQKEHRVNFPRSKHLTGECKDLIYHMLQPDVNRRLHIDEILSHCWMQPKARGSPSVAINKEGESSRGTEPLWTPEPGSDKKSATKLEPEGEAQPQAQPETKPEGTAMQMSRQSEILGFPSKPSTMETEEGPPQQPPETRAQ
Sequence of PAK4 (O96013 whole entry, species assumed): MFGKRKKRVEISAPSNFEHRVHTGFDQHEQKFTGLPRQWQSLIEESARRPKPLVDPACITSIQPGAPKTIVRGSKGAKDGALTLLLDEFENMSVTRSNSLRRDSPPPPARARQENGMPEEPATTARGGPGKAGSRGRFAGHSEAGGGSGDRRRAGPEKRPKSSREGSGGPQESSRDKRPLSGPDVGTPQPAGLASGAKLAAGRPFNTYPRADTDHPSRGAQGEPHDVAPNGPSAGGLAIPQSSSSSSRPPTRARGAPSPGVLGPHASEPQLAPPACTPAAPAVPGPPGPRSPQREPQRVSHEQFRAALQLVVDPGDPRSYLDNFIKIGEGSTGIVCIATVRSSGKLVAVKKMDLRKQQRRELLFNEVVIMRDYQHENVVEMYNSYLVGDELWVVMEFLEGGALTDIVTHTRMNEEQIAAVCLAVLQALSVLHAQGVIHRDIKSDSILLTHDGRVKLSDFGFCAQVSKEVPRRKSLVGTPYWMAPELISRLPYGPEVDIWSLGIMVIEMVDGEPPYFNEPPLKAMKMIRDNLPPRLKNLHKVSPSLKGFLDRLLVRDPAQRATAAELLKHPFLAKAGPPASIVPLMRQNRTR
Sequence of TAK1 (O43318 1-303): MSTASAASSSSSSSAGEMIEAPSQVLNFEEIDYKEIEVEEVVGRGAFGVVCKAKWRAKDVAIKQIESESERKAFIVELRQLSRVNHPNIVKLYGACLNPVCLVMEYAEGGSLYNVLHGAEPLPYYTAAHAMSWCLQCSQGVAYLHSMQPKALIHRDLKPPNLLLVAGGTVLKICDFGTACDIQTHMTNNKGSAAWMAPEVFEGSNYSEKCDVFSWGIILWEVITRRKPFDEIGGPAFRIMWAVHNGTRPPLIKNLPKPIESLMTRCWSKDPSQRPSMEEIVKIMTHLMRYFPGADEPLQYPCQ

SMILES: COc1ccc2sc(-c3cncc(NC(C)=O)c3)nc2c1 [4-93, N-(5-(5-Methoxybenzo[d]thiazol-2-yl)pyridin-3-yl)acetamide]
- inhibition at 1 µM (MKK2): 25%
- inhibition at 1 µM (ERK1): 0%
- inhibition at 1 µM (ERK5): 28%
- inhibition at 1 µM (JNK3): 0%
- inhibition at 1 µM (p38b MAPK): 0%
- inhibition at 1 µM (RSK1): 1%
- inhibition at 1 µM (PKCa): 0%
- inhibition at 1 µM (PKCy): 0%
- inhibition at 1 µM (PKD1): 0%
- inhibition at 1 µM (MNK2): 0%
- inhibition at 1 µM (MAPKAP-K3): 0%
- inhibition at 1 µM (CAMK1): 0%
- inhibition at 1 µM (CHK1): 0%
- inhibition at 1 µM (Aurora A): 0%
- inhibition at 1 µM (TLK1): 0%
- inhibition at 1 µM (LKB1): 0%
- inhibition at 1 µM (MARK1): 0%
- inhibition at 1 µM (BRSK1): 0%
- inhibition at 1 µM (TSSK1): 0%
- inhibition at 1 µM (CK2): 0%
- inhibition at 1 µM (NEK2a): 0%
- inhibition at 1 µM (EF2K): 0%
- inhibition at 1 µM (EIF2AK3): 0%
- inhibition at 1 µM (HIPK1): 0%
- inhibition at 1 µM (HIPK2): 10%
- inhibition at 1 µM (PAK4): 0%
- inhibition at 1 µM (MST2): 0%
- inhibition at 1 µM (MAP4K3): 0%
- inhibition at 1 µM (MINK1): 0%
- inhibition at 1 µM (TESK1): 0%
- inhibition at 1 µM (TAK1): 52%
- inhibition at 1 µM (IRAK4): 12%
- inhibition at 1 µM (TTK): 12%
- inhibition at 1 µM (ULK1): 0%
- inhibition at 1 µM (CSK): 0%
- inhibition at 1 µM (YES1): 0%
- inhibition at 1 µM (BTK): 8%
- inhibition at 1 µM (BRK): 0%
- inhibition at 1 µM (EPH-B3): 0%
- inhibition at 1 µM (HER4): 0%
- inhibition at 1 µM (IGF-1R): 0%
- inhibition at 1 µM (IR): 0%

SMILES: CS(=O)(=O)Nc1cncc(-c2nc3cc(O)ccc3s2)c1 [4-99, N-(5-(5-Hydroxybenzo[d]thiazol-2-yl)pyridin-3-yl)methanesulfonamide]
- inhibition at 1 µM (MKK2): 0%
- inhibition at 1 µM (ERK1): 0%
- inhibition at 1 µM (ERK5): 7%
- inhibition at 1 µM (JNK3): 0%
- inhibition at 1 µM (p38b MAPK): 0%
- inhibition at 1 µM (RSK1): 0%
- inhibition at 1 µM (PKCa): 0%
- inhibition at 1 µM (PKCy): 0%
- inhibition at 1 µM (PKD1): 0%
- inhibition at 1 µM (MNK2): 0%
- inhibition at 1 µM (MAPKAP-K3): 0%
- inhibition at 1 µM (CAMK1): 0%
- inhibition at 1 µM (CHK1): 0%
- inhibition at 1 µM (Aurora A): 0%
- inhibition at 1 µM (TLK1): 0%
- inhibition at 1 µM (LKB1): 0%
- inhibition at 1 µM (MARK1): 0%
- inhibition at 1 µM (BRSK1): 0%
- inhibition at 1 µM (TSSK1): 0%
- inhibition at 1 µM (CK2): 6%
- inhibition at 1 µM (NEK2a): 0%
- inhibition at 1 µM (EF2K): 0%
- inhibition at 1 µM (EIF2AK3): 0%
- inhibition at 1 µM (HIPK1): 0%
- inhibition at 1 µM (HIPK2): 0%
- inhibition at 1 µM (PAK4): 0%
- inhibition at 1 µM (MST2): 0%
- inhibition at 1 µM (MAP4K3): 0%
- inhibition at 1 µM (MINK1): 0%
- inhibition at 1 µM (TESK1): 0%
- inhibition at 1 µM (TAK1): 8%
- inhibition at 1 µM (IRAK4): 8%
- inhibition at 1 µM (TTK): 0%
- inhibition at 1 µM (ULK1): 0%
- inhibition at 1 µM (CSK): 0%
- inhibition at 1 µM (YES1): 0%
- inhibition at 1 µM (BTK): 0%
- inhibition at 1 µM (BRK): 0%
- inhibition at 1 µM (EPH-B3): 2%
- inhibition at 1 µM (HER4): 0%
- inhibition at 1 µM (IGF-1R): 0%
- inhibition at 1 µM (IR): 0%
